Here are results for 3 molecules from PubChem BioAssay AID602347 (The Scripps Research Institute Molecular Screening Center, 2012).

The target in this experiment is Monoacylglycerol lipase ABHD6 (Mus musculus) (UniProt Q8R2Y0). The experiment can be described thus: ABHD6 inhibition in mouse brain after dosing, late-stage follow-up, in vivo study for DAGLb inhibitor project, gel-based competitive ABPP, fluorescence (AID 602347). The following applies: stronger effect = higher value, dose or concentration not given here.
Monoacylglycerol lipase ABHD6 (Mus musculus), sequence (Q8R2Y0 whole entry, looked up): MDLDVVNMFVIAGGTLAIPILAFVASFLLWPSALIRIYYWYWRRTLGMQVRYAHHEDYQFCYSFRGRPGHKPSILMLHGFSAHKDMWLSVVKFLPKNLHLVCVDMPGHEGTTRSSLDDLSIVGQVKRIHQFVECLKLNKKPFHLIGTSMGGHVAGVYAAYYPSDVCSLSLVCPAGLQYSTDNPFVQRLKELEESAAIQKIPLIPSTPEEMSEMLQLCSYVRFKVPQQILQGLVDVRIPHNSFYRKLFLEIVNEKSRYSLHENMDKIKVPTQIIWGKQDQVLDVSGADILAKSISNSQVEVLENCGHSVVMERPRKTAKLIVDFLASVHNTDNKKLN

In general, inhibition refers to the share of the control response that was lost under treatment. Consider `O=C(N1CCCCC1Cc1ccccc1)n1cc(-c2ccc(-c3ccccc3C(F)(F)F)cc2)nn1` (stereo unspecified), for which the inhibition was 95% (with FP-Rh probe) and 95% (with HT-01 probe).

As to `O=C(N1CCCCC1Cc1ccccc1)n1cc(-c2ccc(-c3ccccc3)cc2)nn1` (stereo unspecified), the inhibition (with FP-Rh probe) was 100% and the inhibition (with HT-01 probe) was 100%.

Regarding `COc1ccccc1-c1ccc(-c2cn(C(=O)N3CCCCC3Cc3ccccc3)nn2)cc1` (stereo unspecified), the inhibition reads like this: (with FP-Rh probe) 100%; (with HT-01 probe) 100%.
